Numbers after ± are expanded uncertainties.
Legend:
[1] = Liquid; for mass density: 298.15 K, 101.33 kPa
[2] = refractive index (Na D-line) (dimensionless); conditions: 298.15 K; 101.33 kPa; Liquid

For Cc1cccc(C)c1 [1,3-dimethylbenzene], the mass density [1] was 860.1 ± 2.1 kg/m3, the “vapor or sublimation pressure” value ([1]; 409.35 K) was 95.8 ± 5 kPa and the refractive index [2] was 1.4946 ± 0.0016.
For Cc1ccc(C)cc1 [1,4-dimethylbenzene], the mass density [1] was 856.6 ± 2.1 kg/m3, the “vapor or sublimation pressure” value ([1]; 409.35 K) was 95.8 ± 5 kPa and the refractive index [2] was 1.4933 ± 0.0016.
With CC(C)CC(C)(C)C [2,2,4-trimethylpentane] the mass density [1] was 687.8 ± 1.5 kg/m3, the “vapor or sublimation pressure” value ([1]; 370.55 K) was 95.8 ± 5 kPa and the refractive index [2] was 1.3889 ± 0.0016.
For CC(C)(C)O [2-methylpropan-2-ol], the mass density [1] was 781.2 ± 1.8 kg/m3, the “vapor or sublimation pressure” value ([1]; 354.15 K) was 95.8 ± 5 kPa and the refractive index [2] was 1.3852 ± 0.0016.
In the case of Clc1ccccc1 [chlorobenzene], the mass density [1] is reported as 1100.9 ± 2.9 kg/m3, the “vapor or sublimation pressure” value ([1]; 402.95 K) is reported as 95.8 ± 5 kPa and the refractive index [2] is reported as 1.5219 ± 0.0016.
With CCO [ethanol] the mass density [1] was 784.9 ± 1.8 kg/m3, the “vapor or sublimation pressure” value ([1]; 350.05 K) was 95.8 ± 5 kPa and the refractive index [2] was 1.3594 ± 0.0016.
In the case of CCCCCC [hexane], the mass density [1] is reported as 654.8 ± 1.4 kg/m3, the “vapor or sublimation pressure” value ([1]; 340.25 K) is reported as 95.8 ± 5 kPa and the refractive index [2] is reported as 1.3723 ± 0.0016.

From the NIST ThermoML archive (doi:10.1016/j.jct.2005.04.006)
